Consider 18 compounds from patent US5880147A, “Amide derivatives having ACAT inhibitory activity, their preparation and their therapeutic and prohylactic use” (Sankyo Company, Limited, priority 1995, dated 1999).

In general, IC50 refers to the concentration that inhibits the measured activity by half.

For this assay, the target named is T1, ACAT (acyl-CoA: cholesterol acyl transferase) (Mus musculus, UniProt Q61263).
T1 construct: endogenous in cells; host or cells: primary adherent peritoneal macrophages from unstimulated female DDY mice
T1 sequence (Q61263 1-540): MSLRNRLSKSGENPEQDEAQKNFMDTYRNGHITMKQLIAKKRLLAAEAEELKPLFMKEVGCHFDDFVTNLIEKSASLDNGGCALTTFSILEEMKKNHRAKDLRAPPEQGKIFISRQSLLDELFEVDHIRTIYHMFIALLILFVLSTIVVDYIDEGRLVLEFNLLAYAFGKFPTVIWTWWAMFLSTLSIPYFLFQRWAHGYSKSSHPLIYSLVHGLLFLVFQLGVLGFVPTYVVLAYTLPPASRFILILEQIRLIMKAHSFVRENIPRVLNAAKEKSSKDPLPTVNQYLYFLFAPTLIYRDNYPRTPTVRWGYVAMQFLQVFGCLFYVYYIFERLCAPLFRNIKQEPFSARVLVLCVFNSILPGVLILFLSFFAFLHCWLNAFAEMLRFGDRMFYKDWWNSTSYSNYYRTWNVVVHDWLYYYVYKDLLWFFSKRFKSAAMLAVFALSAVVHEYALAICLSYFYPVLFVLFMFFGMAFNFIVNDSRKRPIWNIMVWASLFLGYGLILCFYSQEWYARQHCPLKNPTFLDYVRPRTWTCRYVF
Kind of assay: Inhibition of ACAT in M.phi. (mouse peritoneal macrophages). The format is cell-based, mouse (female DDY mice). The following applies: β-VLDL 50 μg cholesterol/ml, [14C]oleate-albumin, 37° C., 3 hours. The procedure: Blood was obtained [using the anticoagulant ethylene diamine tetraacetic acid (5 mM)] from Japanese White rabbits which had been fed a 2% w/w cholesterol diet for 2 weeks and then fasted overnight prior to removing the blood. β-VLDL (d<1.006 g/ml) was isolated by ultracentrifugation from the plasma according to the method of Hatch and Lees [Hatch, F T. and Lees, R S.,Adv. Lipid Res., 6 1-68 (1968)] and dialyzed at 4° C. against 10 mM of a sodium phosphate buffer (pH 7.4) containing 150 mM sodium chloride.
Peritoneal cells were harvested from unstimulated female DDY mice (body weight 20-30 g) in phosphate buffer saline (PBS) as described by Edelson and Cohn [Edelson, P J. and Cohn, Z A.,1976, "In Vitro Methods in Cell-Mediated and Tumor Immunity", editors Bloon, B R and David, J R., (Academic Press, New York), 330-340.]. The fluid from the mice was pooled and the cells were collected by centrifugation at 400×g for 10 minutes at 4° C., and washed once with PBS. The cells were resuspended in Dulbecco's modified Eagle's medium (DMEM) containing 10% (vol/vol) fetal calf serum (FCS), penicillin (100 units/ml), and streptomycin (100 μg/ml) at a final concentration of 3×10^6 cells per ml. Aliquots (1 ml) of this cell suspension were dispersed onto plastic petri dishes (35×10 mm) and then incubated in a CO2 incubator (5% CO2 /95% air) at 37° C. for 2 hours. Each dish was washed twice with PBS without serum to remove nonadherent cells.
Inhibition of ACAT in M.phi. was determined according to the method described by Brown et al. Brown, M S., Goldstein J L., Krieger, M., Ho, Y K. and Anderson, R G W. (1979) J. Cell Biol., 82, 597-613.]. Cholesterol reacylation was initiated by adding β-VLDL (final concentration 50 μg cholesterol/ml), [^14 C]oleate-albumin complex (final concentrations: 0.2 mM oleate and 0.6 mg/ml albumin) and a test compound dissolved in ethanol into the M.phi. monolayer, and the preparation was incubated at 37° C. for 3 hours in a CO2 incubator. Cells were washed three times with PBS and cellular lipid was extracted with 1 ml hexane/isopropanol (3:2 vol/vol). A lipid extract was evaporated to dryness in a stream of nitrogen. Cholesterol [^14 C]oleated was seperated by thin layer chromatography through silica gel using an 85:15:1 by volume mixture of hexane, diethyl ether and acetic acid as developing solvents. The ACAT activity in M.phi. was determined by measuring the radioactivity and an inhibition rate (%) was calculated by comparing a control activity with those of the test compound at given concentrations. The results are shown in the following Table, in which the compounds of the present invention are identified by the number of the Example given hereafter in which they are prepared.
As to `CCCCCC(CC(=O)Nc1cc(C(=O)NC)ccc1C(C)(C)C)c1ccc(OC)cc1OC` (stereo not drawn) [Example 1, N-(2-t-Butyl-5-N'-methylcarbamoylphenyl)-3-(2,4-dimethoxphenyl)octanamide], the IC50 is 59.7 nM.

Compound `CCCCCC(CC(=O)Nc1cc(C(N)=O)ccc1C(C)(C)C)c1ccc(OC)cc1OC` (stereo not drawn) [Example 2, N-(2-t-Butyl-5-carbamoylphenyl)-3-(2,4-dimethoxyphenyl)octanamide] had an IC50 of 41.8 nM. As to `CCCCCC(CC(=O)Nc1cc(CC(=O)NC)ccc1C(C)(C)C)c1ccc(OC)cc1OC` (stereo not drawn) [Example 3], the IC50 was 31.1 nM. For `CCCCCC(CC(=O)Nc1cc(CC(N)=O)ccc1C(C)(C)C)c1ccc(OC)cc1OC` (stereo not drawn) [Example 4, N-[2-t-Butyl-5-(carbamoylmethyl)phenyl]-3-(2,4-dimethoxyphenyl)octanamide] the value was 5.97 nM; for `CCCCCC(CC(=O)Nc1cc(COC(N)=O)ccc1C(C)(C)C)c1ccc(OC)cc1OC` (stereo not drawn) [Example 5, N-[2-t-Bu=l-5-(carbamoyloxymethyl)phenyl]-3-(2,4-dimethoxyphenyl)octanamide], 68.1 nM; for `CCCCCC(CC(=O)Nc1cc(CNS(=O)(=O)CC)ccc1C(C)(C)C)c1ccc(OC)cc1OC` (stereo not drawn) [Example 11, N-[2-t-Butyl-5-(ethylsulfonylaminomethyl)phenyl]-3-(2,4-dimethoxyphenyl)octanamide], 9.76 nM. In the case of `CCCCCC(CC(=O)Nc1cc(CC#N)ccc1C(C)(C)C)c1ccc(OC)cc1OC` (stereo not drawn) [Example 19, N-(2-t-Butyl-5-cyanomethylphenyl)-3-(2,4-dimethoxyphenyl)octanamide], the concentration for half-maximal inhibition (IC50) is 28.8 nM.

Take `CCCCCC(CC(=O)Nc1cc(CNC(=O)N(C)C)ccc1C(C)(C)C)c1ccc(OC)cc1OC` (stereo not drawn) [Example 23, N-[2-t-Butyl-5-(N',N'-dimethylaminocarbonylaminomethyl)phenyl]-3-(2,4-dimethoxyphenyl)octanamide]: the 50% inhibitory concentration (IC50) was 10.6 nM. Compound `CCCCCC(CC(=O)Nc1cc(C(=O)NC)ccc1C(C)(C)C)c1cc(C(=O)NC)c(OC)cc1OC` (stereo not drawn) [Example 35, N-(2-t-Butyl-5-N'-methylcarbamoylphenyl)-3-(2,4-dimethoxy-5-N"-methylcarbamoylphenyl)octanamide] gave an IC50 of 62.8 nM.

In turn, `CCCCCCC(CC(=O)Nc1cc(C(N)=O)ccc1C(C)(C)C)c1ccc(OC)cc1OC` (stereo not drawn) [Example 44, N-(2-t-Butyl-5-carbamoylphenyl)-3-(2,4-dimethoxyphenyl)nonanamide] had an IC50 of 23.5 nM.

With `CCCCCC(CC(=O)Nc1cc(C(=O)NC)ccc1C(C)(C)C)c1ccc(OCC(=O)NCCCC)cc1OC` (stereo not drawn) [Example 64, N-(2-t-Butyl-5-N'-methylcarbamoylphenyl)-3-(4-N"-butylcarbamoylmethloxy-2-methoxyphenyl)octanamide], the IC50 was 29.9 nM. For `CCCCCC(CC(=O)Nc1cc(C(=O)NC(=O)C(C)C)ccc1C(C)(C)C)c1ccc(OC)cc1OC` (stereo not drawn) [Example 131, N-[2-t-Butyl-5-(2-methylpropanoyl)aminocarbonylphenyl)-3-(2,4-dimethoxyphenyl]octanamide] the value was 17.3 nM; for `CCCCCC(CC(=O)Nc1cc(C(=O)NC(=O)c2cccnc2)ccc1C(C)(C)C)c1ccc(OC)cc1OC` (stereo not drawn) [Example 136, N-{2-t-Butyl-5-[(3-pyridyl)carbonlaminocarbonyl]phenyl}-3-(2,4-dimethoxyphenyl)octanamide], 9.65 nM. `CCCCCC(CC(=O)Nc1cc(CN2C(=O)c3ccccc3C2=O)ccc1C(C)(C)C)c1cccc2c1OCCO2` (stereo not drawn) [Example 142, N-[2-t-Butyl-5-(phthalimidomethyl)phenyl]-3-(2,3-ethylenedioxyphenyl)octanamide] gave an IC50 of 35.2 nM. For `CCCCCC(CC(=O)Nc1cc(CNC(=O)c2cccnc2)ccc1C(C)(C)C)c1ccc(OC)cc1OC` (stereo not drawn) [Example 158, N-[2-t-Butyl-5-(N'-3-pyridylcarbonylaminomethyl)phenyl]-3-(2,4-dimethoxyphenyl)octanamide] the value was 18 nM; for `CCCCCC(CC(=O)Nc1cc(C(=O)Nc2ccccn2)ccc1C(C)(C)C)c1c(OC)cccc1OC` (stereo not drawn) [Example 165, N-{2-t-Butyl-5-[N-(2-pyridyl)carbamoyl]phenyl}-3-(2,6-dimethoxyphenyl)octanamide], 1.37 nM; for `CCCCCC(CC(=O)Nc1cc(CNC(=O)NC(C)C)ccc1C(C)(C)C)c1cccc2c1OCCO2` (stereo not drawn) [Example 173, N-[2-t-Butyl-5-(N'-isopropylureidomethyl)phenyl]-3-(2,3-ethylenedioxyphenyl)octanamide], 17.6 nM. Under `CCCCCC(CC(=O)Nc1cc(CCC(=O)NC)ccc1C(C)(C)C)c1cc(OC)c(OC)cc1OC` (stereo not drawn) [Example 186, N-[2-t-Butyl-5-(3-methylamino-3-oxopropyl)phenyl]-3-(2,4,5-trimethoxyphenyl)octanamide] stands 79.7 nM.
